Results taken from patent US10640495B2, “Heterocycle derivatives having TrkA inhibitory activity” (Shionogi & Co., Ltd., priority 2015, dated 2020).

Target: human TrkA (Homo sapiens (Human), UniProt P04629)
Assay: Human TrkA inhibition assay (Test Example 2)
Type: biochemical
Settings: Table 152, human TrkA inhibition; read-out: IC50_nM
Protocol: Seven point five μL per well of human TrkA (PV3144, Lifetechnologies, final concentration: 1 nmol/L) suspended in the assay buffer (100 mmol/L 4-(2-hydroxyethyl)-1-piperazineethanesulfonic acid (HEPES), 10 mmol/L magnecium chloride, 0.003 vol % Brij-35, 0.004 vol % Tween20 and 1 mmol/L dithiothreitol (DTT)) was applied in a 384 well plate and the plate was pre-incubated for 15 min at room temperature with 0.4 μL of each compound (final concentration: 200 μmol/L-1 pmol/L) dissolved in DMSO. Then, fluorescent substrate (FL-peptide 27, 760424, PerkinElmer, final concentration: 1.5 μmol/L) and ATP (final concentration 500 μmol/L) dissolved in the assay buffer was added in each well. After the incubation of 120 min at 37° C., fifteen μL of termination buffer (100 mmol/L HEPES, 40 mmol/L ethylenediaminetetraacetic acid (EDTA), 10 mmol/L magnecium chloride, 0.003 vol % Brij-35, 0.004 vol % Tween20, 1 mmol/L DTT and 0.16 vol % Coating Reagent 3) was added in each well to stop the enzyme reaction. Fluorescent intensities (FI) of phosphorylated and non-phosphorylated fluorescent substrates were measured by LabChip EZReader II (Caliper LifeSciences, Inc.), and conversion ratio (CR) was calculated by the following formula-1. The CR in the well applied with DMSO alone was used as a negative control and the CR in the well without applying TrkA was used as a positive control. The inhibitory effect of each compound on TrkA phosphorylation was calculated by the following formula-2. CR (%)=(FI of phosphorylated substrate/(FI of phosphorylated substrate+FI of non-phosphorylated substrate))×100 (Formula-1) Phosphorylation inhibition (%)=(1−(CR with compound treatment−CR of positive control)/(CR of negative control−CR of positive control))×100 (Formula-2)
IC50 values (nmol/L) were determined by the logistic regression using the inhibition data in 10 points of 3-fold dilution series at a compound concentration range of 20 nmol/L to 1 pmol/L, or 10 points of 3-fold dilution series at the range of 2 μmol/L to 0.1 nmol/L, or 10 points of 3-fold dilution series at the range of 200 μmol/L to 10 nmol/L, or 15 points of 3-fold dilution series at the range of 200 μmol/L to 0.04 nmol/L.
The evaluation results of the compounds in the present invention are indicated as follows. IC50 values of 0 to 100 nM, 100 to 1000 nM and over 1000 nM were shown as “A”, “B” and “C”, respectively.

human TrkA, sequence (P04629 440-796): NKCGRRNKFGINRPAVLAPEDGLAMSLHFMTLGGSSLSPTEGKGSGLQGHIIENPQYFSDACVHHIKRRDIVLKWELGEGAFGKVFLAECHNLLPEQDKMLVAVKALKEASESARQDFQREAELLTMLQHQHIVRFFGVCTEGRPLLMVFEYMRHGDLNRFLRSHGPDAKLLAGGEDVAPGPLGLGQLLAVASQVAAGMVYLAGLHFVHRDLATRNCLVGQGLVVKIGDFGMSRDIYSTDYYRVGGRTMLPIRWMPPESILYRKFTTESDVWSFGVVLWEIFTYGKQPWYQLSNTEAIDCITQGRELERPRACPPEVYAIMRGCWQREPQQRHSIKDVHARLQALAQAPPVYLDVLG

Row | IC50 | SMILES
1 | < 100 nM | COCCN1C[C@@H](NC(=O)Nc2c(C)c(-c3cnc4ncnn4c3)nn2-c2ccccc2)[C@H](c2ccc(F)c(F)c2)O1 (racemic) [Compound I-44]
2 | < 100 nM | COCCN1C[C@@H](NC(=O)Nc2c(C)c(-c3ccc(=O)[nH]c3)nn2-c2ccccc2)[C@H](c2ccc(F)c(F)c2)O1 (racemic) [Compound I-32]

Same assay, conditions: Table 153, human TrkA inhibition; read-out: IC50

Row | IC50 | SMILES
3 | < 100 nM | COCCN1C[C@@H](NC(=O)Nc2c(C)c(-c3cnc(OC)c(C(=O)NC4CCS(=O)(=O)CC4)c3)nn2-c2ccccc2)[C@H](c2cnc(OC)c(F)c2)O1 (racemic) [Compound I-104]
4 | < 100 nM | COCCN1C[C@@H](NC(=O)Nc2c(C)c(-c3ccc(C#N)nc3)nn2-c2ccccc2)[C@H](c2ccc(F)c(F)c2)O1 (racemic) [Compound I-129]
5 | < 100 nM | COCCN1C[C@@H](NC(=O)Nc2c(C)c(-c3cnc4c(c3)ncn4C)nn2-c2ccccc2)[C@H](c2ccc(F)c(F)c2)O1 (racemic) [Compound I-72]
6 | < 100 nM | COCCN1C[C@@H](NC(=O)Nc2c(C)c(-c3cc(CO)c(=O)n(C)c3)nn2-c2ccccc2)[C@H](c2cnc(F)c(F)c2)O1 (racemic) [Compound I-81]
7 | < 100 nM | COCC[C@@H]1C[C@@H](NC(=O)Nc2c(C)c(C3=CCN(C(=O)CO)CC3)nn2-c2ccccc2)[C@H](c2ccc(F)c(F)c2)O1 (racemic) [Compound I-56]
8 | < 100 nM | COCCN1C[C@@H](NC(=O)Nc2c(C)c(-c3cnc(OC)c(C(=O)NC4CCOCC4)c3)nn2-c2ccccc2)[C@H](c2ccnc(F)c2)O1 (racemic) [Compound I-111]
9 | < 100 nM | CNC(=O)c1cc(-c2nn(-c3ccccc3)c(NC(=O)N[C@@H]3CN(CCOC)O[C@H]3c3ccnc(F)c3)c2C)cnc1OC (racemic) [Compound I-100]
10 | < 100 nM | CCNC(=O)c1ncc(-c2nn(-c3ccccc3)c(NC(=O)N[C@@H]3CN(CCOC)O[C@H]3c3ccnc(F)c3)c2C)cc1C (racemic) [Compound I-167]

Same assay, conditions: Table 154, human TrkA inhibition; read-out: IC50

Row | IC50 | SMILES
11 | < 100 nM | COCCN1C[C@@H](NC(=O)Nc2c(C)c(-c3ccc4nc(C(N)=O)cn4c3)nn2-c2ccccc2)[C@H](c2ccc(F)c(F)c2)O1 [Compound I-310]
12 | < 100 nM | COCCC1C[C@@H](NC(=O)Nc2c(C)c(-c3cnc(CO)nc3)nn2-c2ccccc2)[C@H](c2ccccc2)O1 (some centres unmarked) [Compound I-296]

The next lines start with the compound.

Row | SMILES | IC50
13 | COCCN1C[C@@H](NC(=O)Nc2c(C)c(-c3cnc4c(c3)ncn4CC(F)(F)F)nn2-c2ccccc2)[C@H](c2ccnc(F)c2)O1 (racemic) [Compound I-240] | < 100 nM
14 | COCC[C@@H]1C[C@@H](NC(=O)Nc2c(C)c(-c3cnc(N4CC(O)C4)nc3)nn2-c2ccccc2)[C@H](c2ccc(F)c(F)c2)O1 (racemic) [Compound I-242] | < 100 nM
15 | CNC(=O)c1cc(-c2nn(-c3ccccc3)c(NC(=O)N[C@@H]3C[C@@H](CCOC)O[C@H]3c3ccnc(F)c3)c2C)cn(C)c1=O [Compound I-271] | < 100 nM
16 | COCC[C@@H]1C[C@@H](NC(=O)Nc2c(C)c(-c3cc(C(=O)NC4CCOCC4)c(=O)n(C)c3)nn2-c2ccccc2)[C@H](c2ccnc(F)c2)O1 [Compound I-272] | < 100 nM

Same assay, conditions: Table 155, human TrkA inhibition; read-out: IC50

Row | IC50 | SMILES
17 | < 100 nM | COCCN1C[C@@H](NC(=O)Nc2c(C)c(OCc3cccnc3)nn2-c2ccccc2)[C@H](c2ccnc(F)c2)O1 (racemic) [Compound I-455]
18 | < 100 nM | COCCN1C[C@@H](NC(=O)Nc2c(C)c(-c3cnc(OC4CC4)nc3)nn2-c2ccccc2)[C@H](c2ccnc(F)c2)O1 (racemic) [Compound I-425]
19 | < 100 nM | COCCN1C[C@@H](NC(=O)Nc2c(C)c(-c3cnc(N4CCN(C(=O)OCc5ccccc5)CC4)nc3)nn2-c2ccccc2)[C@H](c2cc(F)nc(F)c2)O1 (racemic) [Compound I-370]
20 | < 100 nM | COCCN1C[C@@H](NC(=O)Nc2c(C)c(-c3cnc4c(c3)CN(C)C4=O)nn2-c2ccccc2)[C@H](c2ccc(F)cc2)O1 [Compound I-411]
21 | < 100 nM | COCCN1C[C@@H](NC(=O)Nc2c(C)c(-c3cnc(OCCN(C)C)nc3)nn2-c2ccccc2)[C@H](c2ccnc(F)c2)O1 (racemic) [Compound I-409]
22 | < 100 nM | COCCN1C[C@@H](NC(=O)Nc2c(C)c(-c3ccn(C)c(=O)c3)nn2-c2ccccc2)[C@H](c2ccnc(F)c2)O1 (racemic) [Compound I-495]
23 | < 100 nM | COCCN1C[C@@H](NC(=O)Nc2c(C)c(-c3cnc(N4CC5(CCOCC5)C4)nc3)nn2-c2ccccc2)[C@H](c2ccnc(F)c2)O1 (racemic) [Compound I-408]
24 | < 100 nM | COCCN1C[C@@H](NC(=O)Nc2c(C)c(-c3ccc4nccn4c3)nn2-c2ccccc2)[C@H](c2ccnc(F)c2)O1 (racemic) [Compound I-470]
25 | < 100 nM | COCCN1C[C@@H](NC(=O)Nc2c(C)c(-c3cnc(OC(F)F)nc3)nn2-c2ccccc2)[C@H](c2ccnc(F)c2)O1 (racemic) [Compound I-328]

Continued, compound first:

Row | SMILES | IC50
26 | COCCN1C[C@@H](NC(=O)Nc2c(C)c(-c3cnc(N4C[C@H]5COC[C@@H](C4)N5)nc3)nn2-c2ccccc2)[C@H](c2ccnc(F)c2)O1 (racemic) [Compound I-421] | < 100 nM
27 | COCCN1C[C@@H](NC(=O)Nc2c(C)c(-c3cnc4c(c3)c(CO[Si](C)(C)C(C)(C)C)nn4C)nn2-c2ccccc2)[C@H](c2ccnc(F)c2)O1 (racemic) [Compound I-424] | < 100 nM

Same assay, conditions: Table 156, human TrkA inhibition; read-out: IC50

Row | IC50 | SMILES
28 | < 100 nM | COCCN1C[C@@H](NC(=O)Nc2c(C)c(-c3cnc4c(c3)CCO4)nn2-c2ccccc2)[C@H](c2ccnc(F)c2)O1 (racemic) [Compound I-530]
29 | < 100 nM | COCCN1C[C@@H](NC(=O)Nc2c(C)c(-c3ccc(OC)nc3)nn2-c2ccccc2)[C@H](c2ccc(F)c(F)c2)O1 [Compound I-516]
30 | < 100 nM | CCOc1nn(-c2ccccc2)c(NC(=O)N[C@@H]2CN(CCOC)O[C@H]2c2ccc(F)c(F)c2)c1C [Compound I-519]

Row | SMILES | IC50
31 | COCCN1C[C@@H](NC(=O)Nc2c(C)c(-c3cnc(N4CC5CC(C4)O5)nc3)nn2-c2ccccc2)[C@H](c2cnc(F)c(F)c2)O1 [Compound I-514] | < 100 nM

Same assay, conditions: Table 157, human TrkA inhibition; read-out: IC50

Row | IC50 | SMILES
32 | < 100 nM | CCN1C[C@@H](NC(=O)Nc2c(C)c(OCc3cc(=O)ccn3C)nn2-c2ccccc2)[C@H](c2ccc(F)c(F)c2)O1 (racemic) [Compound I-644]
33 | < 100 nM | CCCCN1C[C@@H](NC(=O)Nc2c(C)c(-c3cnc(OC)nc3)nn2-c2ccccc2)[C@H](c2ccc(F)c(F)c2)O1 (racemic) [Compound I-677]
34 | < 100 nM | Cc1c(OCC2CCN(C)CC2)nn(-c2ccccc2)c1NC(=O)N[C@@H]1CN(CC2CC2)O[C@H]1c1ccc(F)c(F)c1 (racemic) [Compound I-653]
35 | < 100 nM | COCCN1CC(NC(=O)Nc2c(C)c(-c3cnc(N4CC5(CCO5)C4)nc3)nn2-c2ccccc2)C(c2ccnc(F)c2)O1 (racemic) [Compound I-581]
36 | < 100 nM | CNC(=O)COc1nn(-c2ccccc2)c(NC(=O)N[C@@H]2CN(CCOC)O[C@H]2c2ccnc(F)c2)c1C (racemic) [Compound I-634]
37 | < 100 nM | CNC(=O)c1cc(-c2nn(-c3ccccc3)c(NC(=O)N[C@@H]3CN(CCOC)O[C@H]3c3ccc(F)c(F)c3)c2C)ccn1 [Compound I-595]
38 | < 100 nM | CCCN1C[C@@H](NC(=O)Nc2c(C)c(OCC3CCN(C)CC3)nn2-c2ccccc2)[C@H](c2ccc(F)c(F)c2)O1 (racemic) [Compound I-654]

Same assay, conditions: human TrkA 1 nmol/L, ATP 500 μmol/L, 120 min at 37° C.; read-out: IC50 values (TrkA phosphorylation inhibition)

Row | IC50 | SMILES
39 | 70 nM | COCCN1C[C@@H](NC(=O)Nc2c(C(F)(F)F)c(C)nn2-c2ccccc2)[C@H](c2ccnc(F)c2)O1 (racemic) [Compound I-660]
40 | 4.8 nM | CCN1C[C@@H](NC(=O)Nc2c(C)c(-c3ccc(OC)nc3)nn2-c2ccccc2)[C@H](c2ccc(F)c(F)c2)O1 (racemic) [Compound I-627]
41 | 6.8 nM | COCCN1C[C@@H](NC(=O)Nc2c(C)c(-c3cnc(OCF)nc3)nn2-c2ccccc2)[C@H](c2ccnc(F)c2)O1 (racemic) [Compound I-620]

The next lines start with the compound.

Row | SMILES | IC50
42 | COCCN1C[C@@H](NC(=O)Nc2c(C)c(-c3ccc4nc(C)nn4c3)nn2-c2ccccc2)[C@H](c2ccnc(F)c2)O1 (racemic) [Compound I-159] | 2.1 nM
43 | COCCN1C[C@@H](NC(=O)Nc2c(C)c(-c3cnc(C)nc3)nn2-c2ccccc2)[C@H](c2cc(F)nc(F)c2)O1 (racemic) [Compound I-285] | 2.7 nM
44 | COCCN1C[C@@H](c2ccnc(F)c2)[C@H](NC(=O)Nc2c(C)c(-c3cnn(C)c3)nn2-c2ccccc2)O1 (racemic) [Compound I-136] | 30 nM
